# Results taken from US8883782B2, “Spiro-tetracyclic ring compounds as beta-secretase modulators and methods of use” (Amgen Inc., priority 2010, dated 2014).
# Legend:
# [1] = biological target: Beta Secretase enzyme (BACE) (Homo sapiens, UniProt P56817); assay: In vitro enzymatic BACE FRET (fluorescence resonance energy transfer) assay; format: biochemical; settings: average IC50, enzyme assay; read-out: BACE 1 FRET assay
# Outline: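 Fluorescence read after Tris quench to neutral pH. Reaction: 50 nM fluorophore/quencher peptide substrate, 1 h, in 0.05 M acetate pH 4.2, 10% DMSO final, 100 uM genapol.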
# [2] = test system: Aβ40 in conditioned medium of cells stably expressing Amyloid Precursor Protein (APP); assay: In vitro BACE cell-based assay (Aβ40 in conditioned medium, sandwich ELISA); settings: Homo sapiens, HEK293, average IC50; read-out: HEK cell assay
# Outline: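 Step two: 10-point compound titration added, starting 100 μM or 10 μM, 0.1% DMSO. Step three: medium Aβ40 measured by ELISA, capture 3 h and detection 2 h at 4° C, TRF read.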
# Sequence of Beta Secretase enzyme (BACE) (P56817 46-501, species assumed): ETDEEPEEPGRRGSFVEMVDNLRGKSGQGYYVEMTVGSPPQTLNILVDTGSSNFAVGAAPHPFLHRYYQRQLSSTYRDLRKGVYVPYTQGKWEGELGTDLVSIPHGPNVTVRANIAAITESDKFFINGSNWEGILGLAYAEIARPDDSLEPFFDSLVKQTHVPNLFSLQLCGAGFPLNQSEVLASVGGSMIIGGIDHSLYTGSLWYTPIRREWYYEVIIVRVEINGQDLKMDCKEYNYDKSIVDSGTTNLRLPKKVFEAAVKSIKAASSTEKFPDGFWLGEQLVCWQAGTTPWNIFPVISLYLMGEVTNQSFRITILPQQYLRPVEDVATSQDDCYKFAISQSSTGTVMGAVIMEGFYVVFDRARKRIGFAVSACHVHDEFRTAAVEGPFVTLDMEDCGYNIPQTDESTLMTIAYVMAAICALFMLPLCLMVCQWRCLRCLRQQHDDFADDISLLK
IC50 [1] [nM],IC50 [2] [nM],Structure (SMILES)
6.8,71.8,"NC1=N[C@@]2(CO1)c1cc(-c3ccc(F)nc3)ccc1Oc1c(F)cc(OC[C@H]3CC3(F)F)cc12 [Example 261, (4S)-2′-(((1R)-2,2-difluorocyclopropyl)methoxy)-4′-fluoro-7′-(6-fluoro-3-pyridinyl)spiro[1,3-oxazole-4,9′-xanthen]-2-amine]"
2.3,13.3,"CC(C)(C#N)COc1cc(F)c2c(c1)[C@]1(COC(N)=N1)c1cc(-c3ccc(F)nc3)ccc1O2 [Example 263, 3-(((4S)-2-amino-4′-fluoro-7′-(6-fluoro-3-pyridinyl)spiro[1,3-oxazole-4,9′-xanthen]-2′-yl)oxy)-2,2-dimethylpropanenitrile]"
1,8.1,"COc1cncc(-c2ccc3c(c2)[C@@]2(COC(N)=N2)c2cc(OCC(C)(C)C#N)cc(F)c2O3)c1 [Example 264, 3-(((4S)-2-amino-4′-fluoro-7′-(5-methoxy-3-pyridinyl)spiro[1,3-oxazole-4,9′-xanthen]-2′-yl)oxy)-2,2-dimethylpropanenitrile]"
0.8,4.7,"CC(C)(C#N)COc1cc(F)c2c(c1)[C@]1(COC(N)=N1)c1cc(-c3cncc(C#N)c3)ccc1O2 [Example 265, 5-((4S)-2-amino-7′-(2-cyano-2-methylpropoxy)-5′-fluorospiro[1,3-oxazole-4,9′-xanthen]-2′-yl)-3-pyridinecarbonitrile]"
2.2,6.8,"CC1(COc2cc(F)c3c(c2)[C@]2(COC(N)=N2)c2cc(-c4ccc(F)nc4)ccc2O3)COC1 [Example 266, (4S)-4′-fluoro-7′-(6-fluoro-3-pyridinyl)-2′-((3-methyl-3-oxetanyl)methoxy)spiro[1,3-oxazole-4,9′-xanthen]-2-amine]"
3.1,12,"CC1(COc2cc(F)c3c(c2)[C@]2(COC(N)=N2)c2cc(-c4cnccn4)ccc2O3)COC1 [Example 267, (4S)-4′-fluoro-2′-((3-methyl-3-oxetanyl)methoxy)-7′-(2-pyrazinyl)spiro[1,3-oxazole-4,9′-xanthen]-2-amine]"
10.5,26.1,"NC1=N[C@@]2(CO1)c1cc(-c3cnccn3)ccc1Oc1c(F)cc(N3C[C@@H]4C[C@H]3CO4)cc12 [Example 268, (4S)-4′-fluoro-2′-((1S,4S)-2-oxa-5-azabicyclo[2.2.1]hept-5-yl)-7′-(2-pyrazinyl)spiro[1,3-oxazole-4,9′-xanthen]-2-amine]"
5.2,18.8,"NC1=N[C@@]2(CO1)c1cc(-c3cnccn3)ccc1Oc1c(F)cc(N3CCOCC3)cc12 [Example 269, (4S)-4′-fluoro-2′-(4-morpholinyl)-7′-(2-pyrazinyl)spiro[1,3-oxazole-4,9′-xanthen]-2-amine]"
5.4,33.6,"NC1=N[C@@]2(CO1)c1cc(-c3cnccn3)ccc1Oc1c(F)cc(OCC3CCOCC3)cc12 [Example 270, (4S)-4′-fluoro-7′-(2-pyrazinyl)-2′-(tetrahydro-2H-pyran-4-ylmethoxy)spiro[1,3-oxazole-4,9′-xanthen]-2-amine]"
0.5,4.1,"NC1=N[C@@]2(CO1)c1cc(-c3cccnc3F)ccc1Oc1c(F)cc(N3CCC(F)(F)C3)cc12 [Example 271, (4S)-2′-(3,3-difluoro-1-pyrrolidinyl)-4′-fluoro-7′-(2-fluoro-3-pyridinyl)spiro[1,3-oxazole-4,9′-xanthen]-2-amine]"
0.5,5.9,"CC(C)(C#N)COc1cc(F)c2c(c1)[C@]1(COC(N)=N1)c1cc(-c3cncc(F)c3)ccc1O2 [Example 272, 3-(((4S)-2-amino-4′-fluoro-7′-(5-fluoro-3-pyridinyl)spiro[1,3-oxazole-4,9′-xanthen]-2′-yl)oxy)-2,2-dimethylpropanenitrile]"
0.7,3.1,"CC1(COc2cc(F)c3c(c2)[C@]2(COC(N)=N2)c2cc(-c4cncc(F)c4)ccc2O3)COC1 [Example 273, (4S)-4′-fluoro-7′-(5-fluoro-3-pyridinyl)-2′-((3-methyl-3-oxetanyl)methoxy)spiro[1,3-oxazole-4,9′-xanthen]-2-amine]"
2.9,10.4,"C[C@@H]1CN(c2cc(F)c3c(c2)[C@]2(COC(N)=N2)c2cc(-c4cncc(F)c4)ccc2O3)C[C@H](C)O1 [Example 274, (4S)-2′-((2R,6S)-2,6-dimethyl-4-morpholinyl)-4′-fluoro-7′-(5-fluoro-3-pyridinyl)spiro[1,3-oxazole-4,9′-xanthen]-2-amine]"
0.7,8,"COc1ccc(-c2cc(F)c3c(c2)[C@]2(COC(N)=N2)c2cc(-c4cccnc4F)ccc2O3)nn1 [Example 275, (4S)-4′-fluoro-7′-(2-fluoro-3-pyridinyl)-2′-(6-methoxy-3-pyridazinyl)spiro[1,3-oxazole-4,9′-xanthen]-2-amine]"
0.8,3.3,"NC1=N[C@@]2(CO1)c1cc(-c3cncc(F)c3)ccc1Oc1c(F)cc(N3C[C@@H]4C[C@H]3CO4)cc12 [Example 276, (4S)-4′-fluoro-7′-(5-fluoro-3-pyridinyl)-2′-((1S,4S)-2-oxa-5-azabicyclo[2.2.1]hept-5-yl)spiro[1,3-oxazole-4,9′-xanthen]-2-amine]"
1.5,6.4,"NC1=N[C@@]2(CO1)c1cc(-c3cncc(F)c3)ccc1Oc1c(F)cc(N3CCOCC3)cc12 [Example 277, (4S)-4′-fluoro-7′-(5-fluoro-3-pyridinyl)-2′-(4-morpholinyl)spiro[1,3-oxazole-4,9′-xanthen]-2-amine]"
0.4,3.9,"NC1=N[C@@]2(CO1)c1cc(-c3cncc(F)c3)ccc1Oc1c(F)cc(C3=CCCOC3)cc12 [Example 278, (4S)-2′-(5,6-dihydro-2H-pyran-3-yl)-4′-fluoro-7′-(5-fluoro-3-pyridinyl)spiro[1,3-oxazole-4,9′-xanthen]-2-amine]"
2,5.4,"COC1CN(c2cc(F)c3c(c2)[C@]2(COC(N)=N2)c2cc(-c4cccnc4F)ccc2O3)C1 [Example 281, (4S)-4′-fluoro-7′-(2-fluoro-3-pyridinyl)-2′-(3-methoxy-1-azetidinyl)spiro[1,3-oxazole-4,9′-xanthen]-2-amine]"
2,8.2,"CC1(C)CN(c2cc(F)c3c(c2)[C@]2(COC(N)=N2)c2cc(-c4cncc(F)c4)ccc2O3)CCO1 [Example 282, (4S)-2′-(2,2-dimethyl-4-morpholinyl)-4′-fluoro-7′-(5-fluoro-3-pyridinyl)spiro[1,3-oxazole-4,9′-xanthen]-2-amine]"
0.4,3.2,"NC1=N[C@@]2(CO1)c1cc(-c3cncc(F)c3)ccc1Oc1c(F)cc(N3CC4CCC(C3)O4)cc12 [Example 283, (4S)-4′-fluoro-7′-(5-fluoro-3-pyridinyl)-2′-(8-oxa-3-azabicyclo[3.2.1]oct-3-yl)spiro[1,3-oxazole-4,9′-xanthen]-2-amine]"
2.2,13.5,"NC1=N[C@@]2(CO1)c1cc(-c3cncc(F)c3)ccc1Oc1c(F)cc([C@@H]3CCCOC3)cc12 [Example 284, (4S)-4′-fluoro-7′-(5-fluoro-3-pyridinyl)-2′-((3S)-tetrahydro-2H-pyran-3-yl)spiro[1,3-oxazole-4,9′-xanthen]-2-amine]"
2.4,20.4,"NC1=N[C@@]2(CO1)c1cc(-c3cncc(F)c3)ccc1Oc1c(F)cc([C@H]3CCCOC3)cc12 [Example 285, (4S)-4′-fluoro-7′-(5-fluoro-3-pyridinyl)-2′-((3R)-tetrahydro-2H-pyran-3-yl)spiro[1,3-oxazole-4,9′-xanthen]-2-amine]"
1.9,15.8,"NC1=N[C@@]2(CO1)c1cc(-c3cccnc3F)ccc1Oc1c(F)cc([C@@H]3CCCOC3)cc12 [Example 286, (4S)-4′-fluoro-7′-(2-fluoro-3-pyridinyl)-2′-((3S)-tetrahydro-2H-pyran-3-yl)spiro[1,3-oxazole-4,9′-xanthen]-2-amine]"
1.7,21.7,"NC1=N[C@@]2(CO1)c1cc(-c3cccnc3F)ccc1Oc1c(F)cc([C@H]3CCCOC3)cc12 [Example 287, (4S)-4′-fluoro-7′-(2-fluoro-3-pyridinyl)-2′-((3R)-tetrahydro-2H-pyran-3-yl)spiro[1,3-oxazole-4,9′-xanthen]-2-amine]"
0.3,4.1,"NC1=N[C@@]2(CO1)c1cc(-c3cncc(F)c3)ccc1Oc1c(F)cc(C3=CCOC3)cc12 [Example 288, (4S)-2′-(2,5-dihydro-3-furanyl)-4′-fluoro-7′-(5-fluoro-3-pyridinyl)spiro[1,3-oxazole-4,9′-xanthen]-2-amine]"
2.5,14.6,"NC1=N[C@@]2(CO1)c1cc(-c3ccc(F)nc3)ccc1Oc1c(F)cc(-c3ncccn3)cc12 [Example 289, (4S)-4′-fluoro-7′-(6-fluoro-3-pyridinyl)-2′-(2-pyrimidinyl)spiro[1,3-oxazole-4,9′-xanthen]-2-amine]"
0.8,8.1,"COc1ccc(-c2cc(F)c3c(c2)[C@]2(COC(N)=N2)c2cc(-c4cncc(F)c4)ccc2O3)nn1 [Example 290, (4S)-4′-fluoro-7′-(5-fluoro-3-pyridinyl)-2′-(6-methoxy-3-pyridazinyl)spiro[1,3-oxazole-4,9′-xanthen]-2-amine]"
0.6,8,"NC1=N[C@@]2(CO1)c1cc(-c3cccnc3F)ccc1Oc1c(F)cc(C3=CCOC3)cc12 [Example 291, (4S)-2′-(2,5-dihydro-3-furanyl)-4′-fluoro-7′-(2-fluoro-3-pyridinyl)spiro[1,3-oxazole-4,9′-xanthen]-2-amine]"
2,31.6,"Cc1ccc(-c2cc(F)c3c(c2)[C@]2(COC(N)=N2)c2cc(-c4cncc(F)c4)ccc2O3)nn1 [Example 292, (4S)-4′-fluoro-7′-(5-fluoro-3-pyridinyl)-2′-(6-methyl-3-pyridazinyl)spiro[1,3-oxazole-4,9′-xanthen]-2-amine]"
